{"source": "patent US20180296523A1", "about": "“USE OF POLYMETHOXYLATED FLAVONES TO AMELIORATE CIRCADIAN RHYTHM DISORDERS” (THE BOARD OF REGENTS OF THE UNIVERSITY OF TEXAS SY, priority 2017, published 2018)", "key": {"RORα-LBD": {"molecular_target": "T1, RORα-LBD (Homo sapiens, UniProt P35398)", "T1 sequence (P35398 272-510 limits assumed)": "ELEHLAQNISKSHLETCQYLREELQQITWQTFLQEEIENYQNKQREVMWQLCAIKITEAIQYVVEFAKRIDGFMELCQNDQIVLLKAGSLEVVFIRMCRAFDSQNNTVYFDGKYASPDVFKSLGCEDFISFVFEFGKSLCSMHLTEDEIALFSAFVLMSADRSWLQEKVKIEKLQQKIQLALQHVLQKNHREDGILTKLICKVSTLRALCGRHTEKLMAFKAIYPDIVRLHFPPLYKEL", "test": "Radioligand receptor binding assay with 25-[3H]-OHC, RORα-LBD", "settings": "in the presence of 4.5 nM 25-[3H]-OHC", "description": "Ligand binding was determined by filter binding assays to calculate the Kd value. […] Ki was determined using the Cheng-Prusoff equation."}, "[1]": {"test_system": "HFD-fed WT and Clock^Δ19/Δ19 C57BL/6J mice", "test": "Diet-induced obese (DIO) mouse model, HFD-fed WT and Clock^Δ19/Δ19 mice", "assay_type": "in vivo", "settings": "for body weight gain: 10-week treatment", "description": "For diet-induced obesity, male mice at 6 weeks of age were fed with HFD (D12492, Research Diets) until the end of the experimental protocol. The mice were treated with either vehicle (DMSO) or NOB (200 mg/kg body weight) via oral gavage every other day, in the time window of ZT8-10, throughout the experimental period. An every-other-day dosing regimen was chosen at the indicated level based on several reasons. First, previous in vivo studies have used similar overall amounts for mouse treatment (100-125 mg/kg/day) (Lee et al., 2013; Li et al., 2006). The oral gavage procedure was done in late afternoon (ZT8-10) prior to the start of their active phase, reasoning that this may coincide with the time-window adopted by previous studies. Second, daily dosing was not chosen to avoid entraining the experimental mice with the procedure per se as an artificial zeitgeber. Furthermore, pilot pharmacokinetic (PK) assays were done under a single-dose condition (Fig. S7). […] Therefore, it was reasoned that every-other day dosing helps avoid any incomplete daily clearance over the chronic experimental period (10 weeks). Weekly body weight was monitored in different treatment mice for 10 weeks. Body mass composition was measured at the end of experiments using a […] spectrometer (Bruker Optics, Texas) (Garcia et al., 2013). A control group of mice were fed with regular chow diet (Purina 5001) in parallel with the two treatment groups in HFD. For db/db and db/db Clock^[…]/[…] mice, male mice at 6-8 weeks of age were group-housed (2-3/cage) and maintained on regular chow diets. Mice were subjected to oral gavage with either DMSO or NOB as described above. Energy expenditure was examined by measuring oxygen consumption with indirect calorimetry as described (Chutkow et al., 2010; Daniels et al., 2010). After 8 weeks of treatments described above, mice from each group were placed at room temperature (22° C.-24° C.) in the chambers of a Comprehensive Lab Animal Monitoring System (CLAMS, Columbus Instruments, Columbus, Ohio). After mice adapted to the metabolic chamber, volume of O2 consumption and CO2 production was continuously recorded over a 24-hr period. Average O2 consumption was calculated and compared between different treatments. Food and water were provided ad libitum. To measure food intake, food pellets were weighted every three hours over a 24-hr period in mice treated as above. The daily food intake was calculated from averaged food intake of 3 independent experiments. Serum samples were obtained at ZT2 from treated mice as previously described (Jeong et al., 2015). Hepatic triglyceride and cholesterol were extracted as previously described (Liu et al., 2012). The triglyceride and cholesterol levels in liver and serum were assessed by Serum Triglyceride Determination Kit (Sigma) and Cholesterol Assay Kit (Cayman), respectively. The assay plates were read by a TECAN M200 instrument (Tecan) following the manufacturer's instructions. Glucose tolerance test (GTT) and insulin tolerance test (ITT) were performed largely as described (He et al., 2015; Jeong et al., 2015). Briefly, after overnight and 5-hr fasting, GTT and ITT were conducted at ZT2 and ZT8 respectively. Glucose levels were measured from tail blood before and 15, 30, 60, or 120 min after injection of either 1 g/kg glucose or 0.75 U/kg insulin (Sigma) at ZT2 and ZT8 respectively by using the ONETOUCH UltraMini blood glucose monitoring system (LifeScan). Serum insulin levels were measured with the Rat/Mouse Insulin Elisa kit (Millipore) according to the manufacturer's instructions. The plasma samples were collected at ZT2 as described above for lipid assays. For microscopic analysis of lipid accumulation in liver, tissue samples were collected and immediately embedded in Tissue-Tek OCT cryostat molds (Leica) and then frozen at -80° C. Tissue sections were stained in 0.5% Oil Red O and counterstained with Mayer's hematoxylin for 1 min. […]"}, "[2]": {"test_system": "PER2::LucSV reporter fibroblast cells", "test": "Dose response validation of reporter rhythm in PER2::LucSV cells", "assay_type": "cell-based, mouse", "description": "The chemical screen for circadian clock modulators was conducted at the Chemical Genomics Core facility at the UTHSC-H. The in-house chemical library screened consists of compounds from NIH Clinical Collection, NCI collection and Microsource Spectrum Collection. The screening was conducted largely based on the protocol previously described (Chen et al., 2012). […] Cells were then incubated with 5 μM forskolin for 1-2 h followed by the addition of chemical compounds to the plates with robotic arms (Beckman), and then subjected to continuous monitoring over several days in a temperature-controlled EnVision microplate reader (Perkin Elmer). Data analysis was carried out by using the MultiCycle software (Actimetrics) for measurement of period, phase, and amplitude. […] Tissue explant experiments were conducted as described previously (Chen et al., 2012)."}, "[3]": {"settings": "HFD-fed WT mice, serum and liver"}}, "note": "Entries after “also recorded” stand apart in the source; their conditions may differ.", "data": [{"smiles": "C[C@@H]1O[C@@H](O[C@H]2[C@H](Oc3cc(O)c4c(c3)O[C@H](c3ccc(O)cc3)CC4=O)O[C@H](CO)[C@@H](O)[C@@H]2O)[C@H](O)[C@H](O)[C@H]1O", "note": "[naringin, reference compound]", "values": [{"measurement": "competitive binding to RORα-LBD", "setting": "RORα-LBD", "value": "markedly diminished binding"}, {"measurement": "difference of treatment effects between WT and Clock^Δ19/Δ19 mice", "setting": "[1]; HFD-fed C57BL/6J mice", "value": "largely indistinguishable"}, {"measurement": "blood insulin levels", "setting": "[1]; HFD-fed Clock^Δ19/Δ19 mice", "value": "decreased to similar extents"}, {"measurement": "glucose tolerance (GTT)", "setting": "[1]; HFD-fed Clock^Δ19/Δ19 mice", "value": "modest effects on glucose tolerance"}, {"measurement": "insulin sensitivity (ITT)", "setting": "[1]; HFD-fed Clock^Δ19/Δ19 mice", "value": "modest effects on insulin sensitivity"}, {"measurement": "fasting blood glucose levels", "setting": "[1]; HFD-fed Clock^Δ19/Δ19 mice, daytime and nighttime", "value": "failed to reduce fasting blood glucose levels"}, {"measurement": "fasting glucose levels", "setting": "[1]; HFD-fed WT mice", "value": "reduced fasting blood glucose levels"}, {"measurement": "glucose tolerance (GTT)", "setting": "[1]; HFD-fed WT mice", "value": "modest effects on glucose tolerance"}, {"measurement": "insulin sensitivity (ITT)", "setting": "[1]; HFD-fed WT mice", "value": "modest effects on insulin sensitivity"}, {"measurement": "blood insulin levels", "setting": "[1]; HFD-fed WT mice, vs vehicle", "value": "decreased to similar extents"}, {"measurement": "effects on body weight gain and lipid and glucose homeostasis", "setting": "[1]; HFD-fed mice, compared with nobiletin", "value": "significantly attenuated effects"}, {"measurement": "reporter luminescence", "setting": "[2]; PER2::LucSV reporter cells", "value": "did not enhance the reporter luminescence"}]}, {"smiles": "COc1ccc(-c2cc(=O)c3c(OC)c(OC)c(OC)c(OC)c3o2)cc1OC", "note": "[nobiletin]", "values": [{"measurement": "competitive binding to RORα-LBD", "setting": "RORα-LBD", "value": "direct binding; also recorded: robust competitive binding"}, {"measurement": "lipid droplet formation in liver", "setting": "[1]; DIO WT liver", "value": "essentially abolished lipid droplet formation"}, {"measurement": "liver steatosis (H&E and Oil Red O staining)", "setting": "[1]; DIO WT liver", "value": "strongly improved liver steatosis"}, {"measurement": "adipocyte cell size", "setting": "[1]; HFD-fed Clock^Δ19/Δ19 mice", "value": "essentially unchanged"}, {"measurement": "energy expenditure", "setting": "[1]; HFD-fed Clock^Δ19/Δ19 mice", "value": "no increase"}, {"measurement": "fat mass", "setting": "[1]; HFD-fed Clock^Δ19/Δ19 mice", "value": "essentially unchanged"}, {"measurement": "food intake", "setting": "[1]; HFD-fed Clock^Δ19/Δ19 mice", "value": "did not change food intake"}, {"measurement": "glucose and lipid homeostasis", "setting": "[1]; HFD-fed Clock^Δ19/Δ19 mice", "value": "did not significantly improve"}, {"measurement": "respiratory quotient", "setting": "[1]; HFD-fed Clock^Δ19/Δ19 mice", "value": "no increase"}, {"measurement": "body weight gain", "setting": "[1]; HFD-fed Clock^Δ19/Δ19 mice", "value": "very modest reduction in body weight gain"}, {"measurement": "beneficial effect on liver steatosis", "setting": "[1]; HFD-fed Clock^Δ19/Δ19 mice, compared with WT mice", "value": "markedly attenuated"}, {"measurement": "fasting glucose levels", "setting": "[1]; HFD-fed WT mice", "value": "lowered fasting glucose levels"}, {"measurement": "fat mass (body mass composition)", "setting": "[1]; HFD-fed WT mice", "value": "reduction in fat mass"}, {"measurement": "glucose tolerance (GTT)", "setting": "[1]; HFD-fed WT mice", "value": "significantly improved"}, {"measurement": "insulin sensitivity (ITT)", "setting": "[1]; HFD-fed WT mice", "value": "significantly improved"}, {"measurement": "respiratory quotient", "setting": "[1]; HFD-fed WT mice", "value": "increased"}, {"measurement": "white adipose cell size", "setting": "[1]; HFD-fed WT mice", "value": "reduction"}, {"measurement": "body weight gain", "setting": "[1]; HFD-fed WT mice, 200 mg/kg oral every other day, vs vehicle", "value": "significantly attenuated body weight gain"}, {"measurement": "total cholesterol (TC) levels", "setting": "[1]; [3]", "value": "significantly diminished"}, {"measurement": "total triglyceride (TG) levels", "setting": "[1]; [3]", "value": "significantly diminished"}, {"measurement": "oxygen consumption (energy expenditure)", "setting": "[1]; HFD-fed WT mice, throughout the circadian cycle", "value": "greatly elevated oxygen consumption"}, {"measurement": "blood insulin levels", "setting": "[1]; HFD-fed WT mice, vs vehicle", "value": "strongly reduced"}, {"measurement": "food intake", "setting": "[1]; HFD-fed WT mice, vs vehicle", "value": "not significantly altered"}, {"measurement": "white adipose cell size", "setting": "[1]; HFD-fed WT mice, listed as NOB", "value": "reduced visceral WAT cell size"}, {"measurement": "amplitude of PER2::LucSV reporter rhythm", "setting": "[2]", "value": "robustly enhanced the amplitude"}, {"measurement": "period of PER2::LucSV reporter rhythm", "setting": "[2]", "value": "lengthened the period in a dose-dependent manner"}, {"measurement": "EC50", "setting": "[2]; Mus musculus, Fibroblast, PER2::LucSV reporter rhythm, read-out: estimated half maximal effective concentration", "value": "< 5", "unit": "µM"}]}]}
